According to PubChem BioAssay (NCI):
Where “and” joins values, the source holds several entries; their conditions need not be identical. Identical values can stand only once.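 Assay format: 96-well plates, 48-hour exposure. GI50: concentration for 50% inhibition of growth. Definition used: TGI = concentration required for complete inhibition of growth.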

Tests used:
Test in all cases: NCI tumour cell line growth inhibition, 48 h
[1] = test system: MDA-MB-231 breast
[2] = test system: T-47D breast
[3] = test system: UO-31 renal
[4] = test system: NCI-H460 lung
[5] = test system: DU-145 prostate
[6] = test system: OVCAR-5 ovarian
[7] = test system: A498 renal
[8] = test system: SNB-75 CNS
[9] = test system: UACC-257 melanoma
[10] = test system: A549 NSCLC

Row | SMILES | GI50 [1] | TGI [1] | GI50 [2] | TGI [2] | GI50 [3] | TGI [3] | GI50 [4] | TGI [4] | GI50 [5] | TGI [5] | GI50 [6] | TGI [6] | GI50 [7] | TGI [7] | GI50 [8] | TGI [8] | GI50 [9] | TGI [9] | GI50 [10] | TGI [10]
1 | COC(=O)/C(=C\c1c(-c2ccccc2)[nH]c2ccccc12)S(C)(=O)=O | 2390 nM | 17.7 µM | 2820 nM | 30.8 µM | 5.49 µM | 28.7 µM | 3.54 µM | 14.2 µM | 2480 nM | 6.11 µM | 19.6 µM | 49.8 µM | 6.56 µM | 21.3 µM | 2260 nM | 9.61 µM | 11.2 µM | 25.9 µM | 5.26 µM | 98.4 µM
2 | CSc1nc(N)c2c(n1)NC(c1ccccc1)C1CCc3ccccc3C1=N2 (stereo unspecified) | > 100000 nM | > 100 µM | 2270 nM | 15.7 µM | 0.737 µM | 9.72 µM | 8.29 µM | > 100 µM | > 100000 nM | > 100 µM | > 100 µM | > 100 µM | > 100 µM | > 100 µM | > 100000 nM | > 100 µM | > 100 µM | > 100 µM | > 100 µM | > 100 µM
3 | COc1cc(NC(C)CCCN)c2ncccc2c1Sc1ccc(Cl)cc1 (stereo unspecified) | 1420 nM | 2.86 µM | 1770 nM | 3.34 µM | 1.59 µM | 3.19 µM | 1.8 µM | 3.22 µM | 1850 nM | 3.32 µM | 1.73 µM | 3.28 µM | 3.65 µM | 16.2 µM | 1700 nM | 3.42 µM | 1.63 µM | 3.15 µM | 1.65 µM | 3.01 µM
4 | O=Nc1c(O)c2ccccc2c2ccccc12 | 849 nM | 5.25 µM | 1320 nM | 3.57 µM | 1.35 µM | 3.3 µM | 1.06 µM | 2.49 µM | 961 nM | 2.23 µM | 1.94 µM | 4.53 µM | 1.6 µM | 3.07 µM | 1510 nM | 2.92 µM | 0.476 µM | 1.75 µM | 1.63 µM | 3.13 µM
5 | C[C@@](O)(/C=C/[C@H]1CC=CC(=O)O1)[C@@H](C[C@@H](O)\C=C/C=C\C=C\CO)OP(=O)(O)O | – | 138 µM | – | 161 µM | 9.39 µM | 19.5 µM and 22 µM | 14.2 µM | 63.6 µM and 78.5 µM | – | 32.5 µM | 11.5 µM | 19.1 µM and 15 µM | 40.2 µM | 83.8 µM and 60.3 µM | 315000 nM and 39400 nM | – | 7.2 µM | 17.6 µM and 14.6 µM | 13.1 µM | 49.6 µM and 57 µM
6 | O=C(Nc1cccc(-n2cc(-c3ccncc3)c(-c3ccc(O)c(Cl)c3)n2)c1)c1ccc(Cl)c(Cl)c1 | 1520 nM | 8.58 µM | 5360 nM | > 100 µM | 4.5 µM | > 100 µM | 3.91 µM | > 100 µM | 20900 nM | > 100 µM | 39.5 µM | > 100 µM | 1.94 µM | 89.9 µM | 977 nM | 18.4 µM | 4.12 µM | 31.3 µM | 6.55 µM | > 100 µM
